Data taken from patent US10071994B2, “N-sulfonyl homoserine lactone derivatives, preparation method and use thereof” (priority 2014, dated 2018).

How the values were obtained:
C. violaceum CV026 [1] = assay: Preliminary screening of bacterial quorum sensing regulatory (agonistic/inhibitory) activity on LB plate; assay type: cell-based, Chromobacterium violaceum; conditions: 1 μl of 0.065M DMSO solution spotted on LB plate with C. violaceum CV026, 30° C., 16-18 h; agonist: purple induced; inhibitor: white circle in presence of inducer C6-HSL
Experimental: 1.1 Preparation work: compounds to be tested (Compounds 1-32 prepared in Example 1-32 and Intermediates 1-3) were weighed and then separately dissolved in 200 μl DMSO (dimethyl sulfoxide) to prepare a solution at a concentration of 0.065M. 5.0 mg inducer, N-hexanoyl homoserine lactone (C6—HSL, purchased from Sigma Company) was weighed and dissolved in 200 μl DMSO (at a concentration of 0.125M), the compounds and the inducer were all stored at 4° C. for further use. C. violaceum CV026 (donated by Professor McLean J C from Texas State University, the bacterium is the Tn-5 mutant of the wild type Chromobacterium violaceum ATCC31532; see Latifi, A., et al., Mol. Microbiol, 17, 333-343(1995) and Winson, M. K., et al., Proc. Natl. Acad. Sci. USA, 92, 9427-9431(1995)) was cultured under shaking in a shaker at 30° C., 200 rpm.
1.2 Method for preliminary screening of compounds having agonistic activity: 400 μl C. violaceum CV026 was added to 5 ml melted semi-solid LB culture medium (1% tryptone, 1% NaCl, and 0.5% yeast extract), and mixed homogeneously; the mixed culture medium was poured into a solid LB plate; when the mixed culture medium was solidified on the plate; 1 μl sample of the dissolved compound to be tested (Compounds 1-32 in Examples 1-32) was spotted on the plate; when the sample was dried in air, the plate was put in a 30° C. oven upside down and cultured for a period of 16-18 h. The agonistic activity of the compound was determined depending on whether purple strain was induced for C. violaceum CV026 on LB plate as well as the density of purple strain.
1.3 Method for preliminary screening of compounds having inhibitory activity: the inducer C6-HSL was diluted gradiently to 1000 times by means of 2-fold dilution; 15 μl of the diluted inducer and 400 μl C. violaceum CV026 in exponential phase were mixed homogeneously and then added to a 5 ml melted semi-solid LB culture medium; the mixture of inducer, C. violaceum, and semi-solid LB culture medium were poured onto a solid LB plate; when the mixture was solidified on the plate, 1 μl sample of the dissolved compound to be tested (Compounds 1-32 in Examples 1-32 and Intermediates 1-3) was spotted on the plate; when the sample was dried in air, the plate was put in a 30° C. oven upside down and was cultured for a period of 16-18 h. The inhibitory activity of a compound was preliminary determined depending on the size of the white circle appeared after C. violaceum CV026 was inhibited on LB plate.
It is found, after preliminary screening, that 17 compounds according to the invention have bacterial quorum sensing regulatory activity, and the screening result was shown in Table 1.

C. violaceum CV026 [2] = assay: Measurement of IC50 of compounds having an inhibitory effect on C. violaceum quorum sensing (purple pigment absorbance at 585 nm); assay type: cell-based; conditions: Chromobacterium violaceum, CV026, read-out: IC50 of compounds having bacterial quorum sensing inhibitory activity
Experimental: 2. Measurement of IC50 of Compounds Having an Inhibitory Effect on C. violaceum Quorum Sensing
2.1 The wells of a 12-well plate were marked as initial concentration group, 2, 4, 8, 16, 32, 64, 128, and 256 fold diluted group, DMSO group, and a blank control group from left to right and from up to bottom, respectively.
2.2 The monoclonal C. violaceum CV026 grew on LB solid plate was cultured to exponential phase in a 5 ml fresh LB liquid culture medium, and 50 μl was then taken for seeding in a 5 ml LB culture medium, and cultured until the optical density OD value was about 1.0. The culture was then mixed homogeneously with LB culture medium at a ratio of 1:9 (at an OD of about 0.15), and added to a 12-well plate in an amount of 2 ml/well.
2.3 The compounds having quorum sensing inhibitory activity in preliminarily screening were dissolved in DMSO (at a concentration of 0.065M), respectively, and then 10 μl was taken into 10 μl DMSO solution for 2-fold dilution, and so on. Each compound was gradiently diluted to a highest fold of 256 (gradient dilution of 2, 4, 8, 16, 32, 64, 128, 256 fold).
2.4 To each well, 15 μl 1000-fold diluted inducer C6-HSL (initial concentration of 0.125M) and 8 μl compound solution at each diluted gradient was added; to the DMSO group, 8 μl DMSO was added; to the blank control group, 8 μl LB culture medium was added. Finally, it was ensured that 2 ml culture in each of the 12-well plate was mixed homogeneously.
2.5 The 12-well plate was placed in a 30° C. shaker at 130 rpm and cultured for 10-12 h.
2.6 After the culture was finished, 1 ml culture was taken from each well and put in a 1.5 ml EP tube and then centrifuged at 12000 rpm for 10 mins. The supernatant of the culture was sucked out, and 500 μl DMSO was added to each EP tube to dissolve the purple pigment in the culture. […] 200 μl supernatant pigment was put in a 96-well culture plate, and measured for absorbance value at 585 nm by a Microplate Reader. The absorbance value and the corresponding concentration were plotted to get the IC50 value.

Structure (SMILES)	Regulatory activity (bacterial quorum sensing) (C. violaceum CV026 [1])	IC50 (C. violaceum CV026 [2]) [µM]
O=C(Cc1ccc(F)cc1)Nc1ccc(S(=O)(=O)N[C@H]2CCOC2=O)cc1 [Compound 20, (S)-4-fluoro-N-(4-(N-(2-oxotetrahydrofuran-3-yl)sulfamoyl)phenyl)benzeneacetamide]	−	
O=C(Nc1ccc(S(=O)(=O)N[C@H]2CCOC2=O)cc1)c1ccc(Cl)s1 [Compound 3, (s)-5-chloro-N-(4-(N-(2-oxotetrahydrofuran-3-yl)sulfamoyl)phenyl)thiophene-2-carb oxamide]	−	
O=C(Nc1ccc(S(=O)(=O)N[C@H]2CCOC2=O)cc1)c1sccc1Br [Compound 10, (s)-3-bromo-N-(4-(N-(2-oxotetrahydrofuran-3-yl)sulfamoyl)phenyl)thiophene-2-carboxamide]	−	13.5 ± 0.54
O=C(Nc1ccc(S(=O)(=O)N[C@H]2CCOC2=O)cc1)c1ccc([N+](=O)[O-])o1 [Compound 13, (s)-5-nitro-N-(4-(N-(2-oxotetrahydrofuran-3-yl)sulfamoyl)phenyl)furan-2-carboxamide]	−	
O=C(Nc1ccc(S(=O)(=O)N[C@H]2CCOC2=O)cc1)c1cc(Br)cs1 [Compound 6, (s)-4-bromo-N-(4-(N-(2-oxotetrahydrofuran-3-yl)sulfamoyl)phenyl)thiophene-2-carb oxamide]	−	
O=C(Nc1ccc(S(=O)(=O)N[C@H]2CCOC2=O)cc1)c1ccco1 [Compound 11, (s)-N-(4-(N-(2-oxotetrahydrofuran-3-yl)sulfamoyl)phenyl)furan-2-carboxamide]	±	
Cc1ccsc1C(=O)Nc1ccc(S(=O)(=O)N[C@H]2CCOC2=O)cc1 [Compound 8, (s)-3-methyl-N-(4-(N-(2-oxotetrahydrofuran-3-yl)sulfamoyl)phenyl)thiophene-2-carboxamide]	−	69.2 ± 1.42
Br.NC1CCOC1=O (stereo not shown) [Intermediate 1, (L)-homoserine lactone hydrobromide]	+	
O=C(Nc1ccc(S(=O)(=O)N[C@H]2CCOC2=O)cc1)c1ccc(Br)s1 [Compound 4, (s)-5-bromo-N-(4-(N-(2-oxotetrahydrofuran-3-yl)sulfamoyl)phenyl)thiophene-2-carb oxamide]	−	
O=C(Cc1ccccc1F)Nc1ccc(S(=O)(=O)N[C@H]2CCOC2=O)cc1 [Compound 27, (S)-2-fluoro-N-(4-(N-(2-oxotetrahydrofuran-3-yl)sulfamoyl)phenyl)benzeneacetamide]	+	
O=C(Nc1ccc(S(=O)(=O)N[C@H]2CCOC2=O)cc1)c1ccsc1 [Compound 2, (s)-N-(4-(N-(2-oxotetrahydrofuran-3-yl)sulfamoyl)phenyl)thiophene-3-carboxamide]	−	
O=C(Nc1ccc(S(=O)(=O)N[C@H]2CCOC2=O)cc1)c1cccs1 [Compound 1, (s)-N-(4-(N-(2-oxotetrahydrofuran-3-yl)sulfamoyl)phenyl)thiophene-2-carboxamide]	−	
O=C(Nc1ccc(S(=O)(=O)N[C@H]2CCOC2=O)cc1)c1ccoc1 [Compound 12, (s)-N-(4-(N-(2-oxotetrahydrofuran-3-yl)sulfamoyl)phenyl)furan-3-carboxamide]	−	
Cc1csc(C(=O)Nc2ccc(S(=O)(=O)N[C@H]3CCOC3=O)cc2)c1 [Compound 7, (s)-4-methyl-N-(4-(N-(2-oxotetrahydrofuran-3-yl)sulfamoyl)phenyl)thiophene-2-carboxamide]	−	
O=C(Nc1ccc(S(=O)(=O)N[C@H]2CCOC2=O)cc1)c1sccc1Cl [Compound 9, (s)-3-chloro-N-(4-(N-(2-oxotetrahydrofuran-3-yl)sulfamoyl)phenyl)thiophene-2-carb oxamide]	−	9.19 ± 0.34
Cc1occc1C(=O)Nc1ccc(S(=O)(=O)N[C@H]2CCOC2=O)cc1 [Compound 15, (s)-2-methyl-N-(4-(N-(2-oxotetrahydrofuran-3-yl)sulfamoyl)phenyl)furan-3-carboxamide]	−	
CC(=O)Nc1ccc(S(=O)(=O)N[C@H]2CCOC2=O)cc1 [Intermediate 2, (s)-N-(4-(N-(2-oxotetrahydrofuran-3-yl)sulfamoyl)phenyl)acetamide]	−	
O=C(Cc1ccc(Cl)cc1)Nc1ccc(S(=O)(=O)N[C@H]2CCOC2=O)cc1 [Compound 21, (S)-4-chloro-N-(4-(N-(2-oxotetrahydrofuran-3-yl)sulfamoyl)phenyl)benzeneacetamide]	−	
O=C(Nc1ccc(S(=O)(=O)NC2CCOC2=O)cc1)c1ccc[nH]1 (stereo not shown) [Compound 17, (s)-1H—N-(4-(N-(2-oxotetrahydrofuran-3-yl)sulfamoyl)phenyl)pyrrole-2-carboxamide]	−	
